Patent US12568969B2, “Pyridine compounds for controlling invertebrate pests” (FMC Corporation, priority 2020, dated 2026)

Experiments:
Assay type in all cases: in vivo
[1] = test system: corn planthopper (Peregrinus maidis (Ashmead)); assay: whole plant or invertebrate; settings: Peregrinus maidis, 144 h, 6 days; for mortality at 10 ppm: sprayed at 10 ppm; for mortality at 50 ppm: sprayed at 50 ppm; for mortality at 250 ppm: sprayed at 250 ppm
Summary of the method: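 Corn plants 3-4 days old were sprayed at 250, 50 and/or 10 ppm in 10% acetone with 300 ppm non-ionic surfactant, three replicates, contact and/or systemic exposure. After 1 h drying, ~15-20 nymphs (18-to-21-day-old) were added; mortality assessed visually after 6 days at 22-24° C, 50-70% RH.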

[2] = test system: diamondback moth (Plutella xylostella (L.)); assay: Test A: control of diamondback moth on mustard plant, spray; settings: sprayed at 250 ppm; assessed after 6 days
Experimental: (§1) Test compounds were formulated using a solution containing 10% acetone, […] and 300 ppm Activator 909 non-ionic surfactant (Loveland Products, Loveland, Colorado, USA). The formulated compounds were applied in 1 mL of liquid through an atomizer nozzle positioned 1.27 cm (0.5 inches) above the top of each test unit. Test compounds were sprayed at the rates indicated, and each test was replicated three times.
For evaluating control of diamondback moth (Plutella xylostella (L.)) the test unit consisted of a small open container with a 12-14-day-old mustard plant inside. This was pre-infested with ˜50 neonate larvae that were dispensed into the test unit via corn cob grits using an inoculator. The larvae moved onto the test plant after being dispensed into the test unit.
Test compounds were formulated and sprayed at 250 ppm. After spraying of the formulated test compound, each test unit was allowed to dry for 1 hour and then a black, screened cap was placed on top. The test units were held for 6 days in a growth chamber at 25° C. and 70% relative humidity. Plant feeding damage was then visually assessed based on foliage consumed, and larvae were assessed for mortality.

[3] = test system: sweetpotato whitefly (Bemisia tabaci (Gennadius)); assay: Test F: control of sweetpotato whitefly on cotton plant, spray; settings: 312 h, 13 days; for mortality at 50 ppm: sprayed at 50 ppm; for mortality at 250 ppm: sprayed at 250 ppm
Summary of the method: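 Cotton plants 12–14 days old, trimmed to one true leaf and carrying at least 15 whitefly eggs, were sprayed at 250 and/or 50 ppm in acetone/water with non-ionic surfactant, three replicates. After 13 days at 28° C and 50-70% relative humidity, insect mortality was scored visually.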

[4] = test system: green peach aphid (Myzus persicae (Sulzer)); assay: Test D: control of green peach aphid on radish plant, spray; settings: Myzus persicae, 144 h, 6 days; for mortality at 50 ppm: sprayed at 50 ppm; for mortality at 250 ppm: sprayed at 250 ppm
Summary of the method: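 Radish plants (12-15 days old) pre-infested with 30-40 aphids, sprayed with compound in 10% acetone/water with 300 ppm non-ionic surfactant at 250 and/or 50 ppm, three replicates. Held 6 days at 19-21 °C, 50-70% relative humidity, then mortality scored visually.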

[5] = test system: cotton melon aphid (Aphis gossypii (Glover)); assay: whole plant or invertebrate; settings: Aphis gossypii, 144 h, 6 days; for mortality at 50 ppm: sprayed at 50 ppm; for mortality at 250 ppm: sprayed at 250 ppm
Summary of the method: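 Compounds were formulated in a solution of 10% acetone, […] and 300 ppm Activator 909 non-ionic surfactant and sprayed as 1 mL through an atomizer nozzle 1.27 cm (0.5 inches) above each test unit, with three replicates. Units were pre-infested with 30-40 aphids on leaf pieces via the cut-leaf method, soil covered with sand, then kept 6 days at 19° C. and 70% relative humidity before visual mortality scoring.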

[6] = test system: potato leafhopper (Empoasca fabae (Harris)); assay: Test C: control of potato leafhopper on Soleil bean plant, spray; settings: Empoasca fabae, 144 h; sprayed at 250 ppm; 6 days
Experimental: as §1
For evaluating control of potato leafhopper (Empoasca fabae (Harris)) through contact and/or systemic means, the test unit consisted of a small open container with a 5-6-day-old Soleil bean plant (primary leaves emerged) inside. White sand was added to the top of the soil, and one of the primary leaves was excised prior to application of the test compound.
[…] After spraying of the formulated test compound, the test units were allowed to dry for 1 hour before they were post-infested with 5 potato leafhoppers (18-to-21-day-old adults). A black, screened cap was placed on the top of the test unit, and the test units were held for 6 days in a growth chamber at 20° C. and 70% relative humidity. Each test unit was then visually assessed for insect mortality.

[7] = test system: Western Flower Thrips (Frankliniellla occidentalis (Pergande)); assay: Test G: control of Western Flower Thrips on Soleil bean plant, spray; settings: sprayed at 250 ppm; 6 days
Experimental: as §1
For evaluating control of the Western Flower Thrips (Frankliniellla occidentalis (Pergande)) through contact and/or systemic means, the test unit consisted of a small open container with a 5-7-day-old Soleil bean plant inside.
Test compounds were formulated and sprayed at 250 ppm. After spraying, the test units were allowed to dry for 1 hour, and then about 60 thrips (adults and nymphs) were added to each unit. A black, screened cap was placed on top, and the test units were held for 6 days at 25° C. and 45-55% relative humidity. Each test unit was then visually assessed for plant damage and insect mortality.

Row | Compound | mortality at 10 ppm [1] [%] | mortality at 50 ppm [1] [%] | mortality at 250 ppm [1] [%] | control efficacy (40% or less feeding damage and/or 100% mortality) [2] | mortality at 50 ppm [3] [%] | mortality at 250 ppm [3] [%] | mortality at 50 ppm [4] [%] | mortality at 250 ppm [4] [%] | mortality at 50 ppm [5] [%] | mortality at 250 ppm [5] [%] | mortality at 250 ppm [6] [%] | control efficacy (30% or less plant damage and/or 100% mortality) [7]
1 | Fc1cncc(-c2ncco2)c1C(F)c1ccc(SC(F)(F)F)cc1 (centres unmarked) [Compound 78] | ≥ 80 | ≥ 80 | ≥ 80 | very good to excellent levels of control efficacy | ≥ 70 | ≥ 70 | ≥ 80 | ≥ 80 | ≥ 80 | ≥ 80 |  | 
2 | FC(c1ccc(OC(F)(F)F)cc1)c1ccncc1-n1cccn1 (centres unmarked) [Compound 11] |  | ≥ 80 | ≥ 80 |  |  |  |  | ≥ 80 | ≥ 80 | ≥ 80 | ≥ 80 | 
3 | CO[C@H](c1ccc(OC(F)(F)F)cc1)c1c(F)cncc1-n1nccn1 [Compound 125, 3-fluoro-4-[(R)-methoxy-[4-(trifluoromethoxy)phenyl]methyl]-5-(triazol-2 yl)pyridine] | ≥ 80 | ≥ 80 | ≥ 80 | very good to excellent levels of control efficacy | ≥ 70 | ≥ 70 | ≥ 80 | ≥ 80 | ≥ 80 | ≥ 80 |  | 
4 | FC(c1ccc(OC(F)(F)F)cc1)c1c(Cl)cncc1-c1nccs1 (centres unmarked) [Compound 50] | ≥ 80 | ≥ 80 |  | very good to excellent levels of control efficacy |  |  |  |  | ≥ 80 | ≥ 80 |  | very good to excellent levels of control efficacy
5 | Fc1cncc(-n2nccn2)c1C(F)c1ccc(Br)cc1 (centres unmarked) [Compound 92] | ≥ 80 | ≥ 80 | ≥ 80 | very good to excellent levels of control efficacy | ≥ 70 | ≥ 70 |  |  | ≥ 80 | ≥ 80 |  | 
6 | COC(c1ccc(SC(F)F)cc1)c1c(F)cncc1-n1nccn1 (centres unmarked) [Compound 118] |  |  |  | very good to excellent levels of control efficacy | ≥ 70 | ≥ 70 | ≥ 80 | ≥ 80 | ≥ 80 | ≥ 80 |  | 
7 | FC(c1ccc(OC(F)(F)F)cc1)c1c(Br)cncc1-n1nc(Br)c(Br)n1 (racemic) [Compound 29] |  |  |  | very good to excellent levels of control efficacy |  |  |  |  |  |  |  | very good to excellent levels of control efficacy
8 | Fc1cncc(-c2ccno2)c1C(F)c1ccc(OC(F)(F)F)cc1 (centres unmarked) [Compound 41] | ≥ 80 | ≥ 80 |  |  |  |  |  |  |  | ≥ 80 |  | very good to excellent levels of control efficacy
9 | FC(c1ccc(OC(F)(F)F)cc1)c1c(Cl)cncc1-n1nccn1 (centres unmarked) [Compound 14] |  | ≥ 80 | ≥ 80 |  | ≥ 70 | ≥ 70 | ≥ 80 | ≥ 80 | ≥ 80 | ≥ 80 | ≥ 80 | 
